Consider two substances from patent US8163709B2, “TAK1-D mediated induction of cell death in human cancer cells by specific sequence short double-stranded RNAS” (Board of Regents of the University of Texas System, priority 2008, dated 2012).

Entries after “also recorded” stand apart in the source; their conditions may differ.

One data set relates to TLK1. Kind of data set: TLK1 protein level in NCI-H460 cells (Western blot). Type of data set: cell-based, human. Particulars: first 6 h after addition. The text has this: FIGS. 3A-D illustrate the timecourse as well the downstream signaling events of dsRNA mediated Tak1-D activation in more detail. […] This activation is not triggered by siRNA si6 or by the non-targeting scrambled sequence siNT, even at later timepoints. […] The activation of TAK1-D leads to a phosphorylation of the MAPKKs of both stress activated protein kinase signaling pathways, indicated by the occurrence of activation phosphorylation on MKK3/6 and MKK4 (FIG. 3A). Consecutively activation of MKK3/6 leads to phosphorylation and activation of the p38 MAPK, while activation of MKK4 phosphorylates and activates SAPK/JNK. These mitogen activated protein kinase kinases phosphorylate and activate their respective substrates p38 MAP kinase and SAPK/JNK. […] This provided further confirmation, apart from the rapid occurrence of TAK1-D phosphorylation, that gene silencing effects of the siRNAs play no role in the phenomena described.
Background: Immunoblotting shows a protein as a band on a membrane.

Another data set has as its system H460 cells. Kind of data set: Survival assay of H460 cells, Crystal Violet staining.
In another data set the target is T1, TAK1-D (Homo sapiens, UniProt O43318).
T1 sequence (O43318 1-491 isoform O43318-4): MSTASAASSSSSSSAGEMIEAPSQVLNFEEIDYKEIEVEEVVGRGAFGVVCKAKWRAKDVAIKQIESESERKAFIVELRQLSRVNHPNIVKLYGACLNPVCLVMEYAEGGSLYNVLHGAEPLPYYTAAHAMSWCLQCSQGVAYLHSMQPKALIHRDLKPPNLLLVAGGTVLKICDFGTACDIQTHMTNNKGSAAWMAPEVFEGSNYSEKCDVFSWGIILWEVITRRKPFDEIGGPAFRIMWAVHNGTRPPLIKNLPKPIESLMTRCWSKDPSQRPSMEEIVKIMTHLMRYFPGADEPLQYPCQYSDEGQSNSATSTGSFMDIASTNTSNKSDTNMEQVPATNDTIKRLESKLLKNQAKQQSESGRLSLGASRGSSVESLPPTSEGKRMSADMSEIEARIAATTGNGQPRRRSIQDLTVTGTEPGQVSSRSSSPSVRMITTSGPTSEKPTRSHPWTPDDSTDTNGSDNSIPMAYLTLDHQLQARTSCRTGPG
Kind of data set: TAK1-D autophosphorylation on T184/T187 in H460 cells (Western blot, phospho-specific antibody). It counts as cell-based. On the set-up: endogenous in cells; host or cells: NCI-H460. Conditions: for activating autophosphorylation (activation) of TAK1-D on T184 and T187: H460 cells, RNA transfected (20 nM), Western blot. The protocol:
In an effort to identify the MAPKKK responsible for the activation of the p38 MAP kinase and SAPK/JNK pathway, several of these kinases were screened for siRNA si5 mediated activation.
Immunoblot analysis. Western blotting was performed exactly as described previously (Kodym et al., 2008b). In addition to the primary antibodies previously mentioned (Kodym et al., 2008b) the following antibodies were used: S6 ribosomal protein (Cell Signaling #2217), DPM1 (Santa Cruz #sc-15836, Santa Cruz, Calif., USA), and Histone H3 (Cell Signaling #9715).

In another data set the target is T2, TAK1-D/TAB1 complex (Homo sapiens, UniProt O43318).
T2 construct: made in house; host or cells: HeLa cells
T2 sequence (O43318 1-491 isoform O43318-4): T1 sequence (O43318 1-491 isoform O43318-4)
T2 sequence (Q15750 1-504 partner): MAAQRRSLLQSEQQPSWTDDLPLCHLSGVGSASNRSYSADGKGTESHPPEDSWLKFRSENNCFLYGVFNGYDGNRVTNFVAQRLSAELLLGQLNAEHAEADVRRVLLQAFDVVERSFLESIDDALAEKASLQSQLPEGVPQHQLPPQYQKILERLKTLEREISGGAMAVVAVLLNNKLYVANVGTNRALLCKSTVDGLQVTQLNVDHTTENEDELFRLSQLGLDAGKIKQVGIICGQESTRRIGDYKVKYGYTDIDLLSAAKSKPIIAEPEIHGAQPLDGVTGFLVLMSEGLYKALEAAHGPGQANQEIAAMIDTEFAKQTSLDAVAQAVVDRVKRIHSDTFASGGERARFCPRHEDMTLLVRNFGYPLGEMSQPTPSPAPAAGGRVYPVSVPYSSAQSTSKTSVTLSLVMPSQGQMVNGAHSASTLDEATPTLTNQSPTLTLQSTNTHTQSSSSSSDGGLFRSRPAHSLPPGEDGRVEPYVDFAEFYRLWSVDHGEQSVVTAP
Kind of data set: In vitro kinase assay with purified FLAG-TAK1-D/His-TAB1. Type of data set: biochemical. Particulars: purified proteins, cell-free. The text has this:
FIGS. 2A-C: Effect of dsRNAs on the activity of purified recombinant TAK1-D protein. (FIG. 2A) In vitro kinase assay showing the activation of TAK1-D autophosphorylation by siRNA si5. FLAG-tagged TAK1-D and His-tagged TAB1 were coexpressed in Hela cells and purified by immunoprecipitation with anti FLAG antibody. […] Error bars indicate the standard error of 3 experiments.
To verify if siRNA si5 indeed interacts with TAK1-D directly, the activation of the kinase was studied in vitro using purified proteins. […] To test whether the increased activation of the TAK1-D/TAB1 complex by siRNA si5 is caused by an increased affinity of the RNA molecule to the kinase, binding of radiolabeled siRNAs to immunoprecipitated FLAG tagged TAK1-D was measured. In FIG. 2C the amount of RNA bound to immobilized FLAG-TAK1-D is given.
FLAG-tagged TAK1-D and HIS-tagged TAB1 were co-expressed in HeLa cells and the proteins were purified through immunoprecipitation with an anti-FLAG antibody.

The next data set deals with HCC2279 cells. As to the kind of experiment: Crystal Violet staining of HCC2279 cells. It counts as cell-based, human. Particulars: 48 h. The protocol: To test whether the dsRNA mediated activation of the stress-activated protein kinase cascade also leads to cell death in HCC2279 cells, the cells were plated in a 12 well multi-well plated, treated with siRNA si5 or as a control with siRNA si6 and stained with Crystal Violet 48 h later. […] The data presented as well as the widespread expression of Tak1-D in tissues like lung, brain, liver, and prostate (Dempsey et al., 2000) makes targeted activation of TAK1-D by specific dsRNA an interesting treatment opportunity for these types of cancer.

The next data set has as its system H460 xenograft tumors. Kind of data set: H460 xenograft tumor growth after intratumoral injection. Type of data set: in vivo. The procedure: In order to test whether the proposed treatment approach for NSCLC using dsRNA-mediated activation of TAK1-D is feasible in vivo H460 xenograft tumors grown in athymic NCr nu/nu mice were treated with by intratumoral injection of a liposomal dsRNA preparation. About 10 days after subcutaneous injection of […] H460 cells into the left hind leg of the animals tumors had reached a volume of about 300 μl and were injected with 50 μl of liposomal control RNA or active RNA si5. Liposomes consisting of DOTAP and Cholesterol (1:1) were prepared by sonication and extrusion. RNA was bound to the polycation protamine and liposome/polycation/RNA nanoparticles were prepared by mixing the protamine RNA complex with the liposomes. Finally 4 μg of RNA were injected in a volume of 50 μl on day 0 and 1. […].

In the case of “si6: control 21-mer siRNA against TLK1 mRNA: GGGUGGAAAUGGCUCAAGUtt (SEQ ID NO: 4) / gtCCCACCUUUACCGAGUUCA (SEQ ID NO: 5) (sense GGGUGGAAAUGGCUCAAGUTT; antisense GTCCCACCUUUACCGAGUUCA; chemistry not given here; one strand is listed 3' to 5') [reference compound]”, in the data set on TLK1, the “protein levels of Tlk1” value is “remain unchanged”. In addition, in the data set with H460 cells (H460, 48 hours after transfection, shRNA experiment), the “cell death, crystal violet” value is recorded as “no cell death or growth inhibition could be observed”. Besides, the “toxicity, crystal violet” value was “no significant toxicity can be observed” in the data set on H460 cells (H460-wt, H460-vec, H460-K63W, 48 h) and “no significant toxicity” with HCC2279 cells (HCC2279, concentration range tested). In the data set with TAK1-D, the “activating autophosphorylation (activation) of TAK1-D on T184 and T187” value is reported as “not triggered”. For the same substance, in the data set with TAK1-D/TAB1 complex, the “autophosphorylation activity of the TAK1-D/TAB1 complex” value was “not”.
As for “si5: 21-mer siRNA against TLK1 mRNA: GGCUUUUGACCUUUAUGAAtt (SEQ ID NO: 2) / ttCCGAAAACUGGAAAUACUU (SEQ ID NO: 3) (sense GGCUUUUGACCUUUAUGAATT; antisense TTCCGAAAACUGGAAAUACUU; chemistry not given here; one strand is listed 3' to 5')”, in the data set on TLK1, the “protein levels of Tlk1” value is on record as “remain unchanged”. Besides, the “effect on cells, Crystal Violet” value is listed as “slight growth retardation” in the data set on H460 cells (H460, 5 nM, 48 h); “significant cell kill” with H460 cells (H460, 10 nM to 20 nM, 48 h); “small effect on cell growth” in the data set on HCC2279 cells (HCC2279, 5 nM); “significant cell death” in the data set with HCC2279 cells (HCC2279, 10 to 20 nM). Further, the “cell death, crystal violet” value was “massive cell death” with H460 cells (H460-wt and H460-vec, 5 or 10 nM, 48 h); “survive the treatment and not” in the data set on H460 cells (TAK1-D/K63W transfected H460, 5 or 10 nM, 48 h). Besides, the “normal tissue toxicity (necrosis of skin or tumor vascular system)” value in the data set on H460 xenograft tumors (intratumoral liposomal preparation) is “no sign of normal tissue toxicity”. The tumor growth kinetics entry in the data set with H460 xenograft tumors (intratumoral, liposome (DOTAP:Cholesterol)/protamine/RNA nanoparticles, 4 μg RNA day 0 and 1) is given as “tumor growth delay”. In addition, the “activating autophosphorylation (activation) of TAK1-D on T184 and T187” value in the data set with TAK1-D is “a si5 induced signal was detected; also recorded: able to activate Tak1-D; also recorded: leads to phosphorylation of TAK1-D”. In addition, in the data set with TAK1-D (NCI-H460 cells, 6 h), the “autophosphorylation signal of Tak1-D six hours after addition” value was “significantly stronger autophosphorylation signal”. The “autophosphorylation activity of the TAK1-D/TAB1 complex” value with TAK1-D/TAB1 complex is recorded as “increase in autophosphorylation activity; also recorded: increased the autophosphorylation activity”.
